The target in the experiment is T1, GJB2 (Gap junction protein beta-2; Connexin 26, Cx26); GFP-GJB2 (Homo sapiens, UniProt P29033).
T1 construct: 7QEQ is printed as human GJB2 for docking only
Nature of the experiment: microscale thermophoresis (Monolith NT.[…]), GFP-GJB2 in HEK293T lysate. The experiment is classed as binding. (MST reads how a fluorescent partner responds to local heating, with and without ligand.)

We go through one compound from paper PMC11497106, “GJB2 Promotes HCC Progression by Activating Glycolysis Through Cytoplasmic Translocation and Generating a Suppressive Tumor Microenvironment Based on Single Cell RNA Sequencing” (Advanced Science, 2024).

The Kd is the free concentration of one partner at which half of the binding sites on the other are occupied at equilibrium, for simple one-to-one binding. High values mean a looser complex, low ones a tighter complex. In the case of `O=C(/C=C/c1ccc(O)c2c1[C@H](C(=O)O[C@H](Cc1ccc(O)c(O)c1)C(=O)O)[C@@H](c1ccc(O)c(O)c1)O2)O[C@H](Cc1ccc(O)c(O)c1)C(=O)O` [Salvianolic acid B], the dissociation constant (Kd) was found to be 8.52 µM.
